Results reported in patent US20250011296A1, “MODULATORS OF MOLECULAR TARGETS EXPRESSED IN METABOLIC AND INFLAMMATORY DISORDERS” (Ohio State Innovation Foundation, priority 2021, published 2025).

What was measured:
GLUT-4 expression = test: Larval diabetic zebrafish assay, Western blot of GLUT-4; format: in vivo; details: duplicate Western blot (FIG. 11), diabetic zebrafish larvae, 10 μM
Description: (§1) Following isolation, derivatization, and analysis of compounds 41-48 through the in vitro panel of assays, the mace natural products and licarin A derivatives were investigated in the larval diabetic zebrafish assay for potential antidiabetic activity. Western blot analysis of zebrafish expression levels for glycated hemoglobin, metabolic enzymes, and molecular targets NFκB and PPAR-γ was performed to evaluate potential lead improvement and to discover possible mechanisms of action.
Wild-type zebrafish were sorted into 24-well microplates with 10 fish per well for a four-phase treatment cycle. At 72 hpf, type 2 diabetes was induced by administering 0.5 mg/mL alloxan in fish water for percutaneous absorption. After three hours of alloxan treatment, phase two of the treatment cycle was initiated by administering 10 μM doses of natural product compounds 41-43 (FIG. 4) or derivatives 45-48 (FIG. 6) with 0.01% DMSO in system water. […] Following centrifugation (60 minutes at 4° C. and 17,000 rpm), protein content of the homogenate supernatant was determined using the Pierce BCA Protein Assay kit (Pierce Biotechnology). Homogenates were analyzed by Western blot with equal amounts of total protein (20 μg) in each sample and using 4×LDS loading buffer (NuPAGE Life Technologies). […]
Electrophoresis was performed with NuPAGE MES SDS Running Buffer and using the XCell SureLock Mini-Cell Electrophoresis System (Life Technologies). […] The HRP conjugated antibodies were detected using SuperSignal West Femto chemiluminescent substrate (Pierce Biotechnology) and immunoblot images were captured using the luminometer and Lumi Analyst 3.0 software.
(§2) Band densities were determined using ImageJ Gel Analysis to determine expression levels of each protein of interest. Expression levels of HbA1C, PPAR-γ, and NFκB were organized into a bar graphs (FIG. 5) with band densities calculated in comparison to the housekeeping gene β-actin, normalized to the untreated diabetic group (B) of zebrafish. […].

PEPCK expression = test: Larval diabetic zebrafish assay, Western blot of PEPCK; format: in vivo; details: duplicate Western blot (FIG. 10), diabetic zebrafish larvae, 10 μM
Description: as §1
Wild-type zebrafish were sorted into 24-well microplates with 10 fish per well for a four-phase treatment cycle. At 72 hpf, type 2 diabetes was induced by administering 0.5 mg/mL alloxan in fish water for percutaneous absorption. After three hours of alloxan treatment, phase two of the treatment cycle was initiated by administering 10 μM doses of natural product compounds 41-43 (FIG. 4) or derivatives 45-48 (FIG. 6) with 0.01% DMSO in system water. At 78 hpf, the incubation solution was changed to 10 mg/ml D-glucose for 30 minutes, followed by a phase-four rinse in fresh system w Following the four-phase treatment cycle, zebrafish treatment groups were snap frozen in microcentrifuge tubes on dry ice, stored overnight at −80° C., thawed, and homogenized with 2 μL PBS per animal. Following centrifugation (60 minutes at 4° C. and 17,000 rpm), protein content of the homogenate supernatant was determined using the Pierce BCA Protein Assay kit (Pierce Biotechnology). Homogenates were analyzed by Western blot with equal amounts of total protein (20 μg) in each sample and using 4×LDS loading buffer (NuPAGE Life Technologies). The immunoblot samples were heated at 95° C. for 5 minutes and loaded onto NuPAGE Bis-Tris 4-12% gradient SDS-PAGE gels.
Electrophoresis was performed with NuPAGE MES SDS Running Buffer and using the XCell SureLock Mini-Cell Electrophoresis System (Life Technologies). Proteins separated on the gel were transferred to a PVDF membrane using TBST buffer. The blots were blocked in 3% BSA in TBST and subsequently probed overnight with primary antibodies (1:1000 in 1% BSA in TBST) against each target of interest. Following TBST rinses, secondary HRP-conjugated antibodies (1:2000) were applied to the membrane for 60 minutes. The HRP conjugated antibodies were detected using SuperSignal West Femto chemiluminescent substrate (Pierce Biotechnology) and immunoblot images were captured using the luminometer and Lumi Analyst 3.0 software.
as §2

`C/C=C/c1cc(OC)c2c(c1)[C@H](C)[C@@H](c1ccc(O)c(OC)c1)O2` [Compound 42, licarin A] was tested, and the “GLUT-4 expression (band density)” value (GLUT-4 expression) was “significantly increased capacities for glucose uptake” and the “PEPCK expression (band density)” value (PEPCK expression) was “retained low PEPCK expression”.
